# Data reported in PMC9421655, “Novel Antagonist of the Type 2 Lysophosphatidic Acid Receptor (LPA2), UCM-14216, Ameliorates Spinal Cord Injury in Mice” (Journal of Medicinal Chemistry, 2022).
# Entries after “also recorded” stand apart in the source; their conditions may differ.
# Key:
# LPA2 = molecular target: T1, LPA2 (Homo sapiens, UniProt Q9HBW0); experiment: Ca2+ mobilization assay, antagonist activity at LPA2; assay type: cell-based; parameters: Emax: dose or concentration left out as unconfirmed
# T1 construct: expressed in transfected cells
# Protocol: Cells stably expressing the corresponding LPA1–3 receptor were grown as described previously.[18] Changes in intracellular calcium levels were measured by using the fluorescent calcium sensitive dye Fluo-4 NW (Invitrogen). RH7777 cells or B103 cells were plated on poly-D-lysine or collagen coated, respectively, black-wall clear-bottom 96-well plates (Corning) at a density of 50 000 cells/well and cultured overnight. The culture medium was then replaced with 100 μL of Fluo-4 NW dye loading solution containing 2.5 μM of probenecid and incubated for 30 min at 37 °C followed by an additional 30 min at rt. […] Fluorescence changes were registered in a FluoStar Optima instrument (BMG Labtech) at 525 nm using an excitation wavelength of 494 nm. […] The data presented are from two to four independent experiments carried out in triplicate or quadruplicate. Dose–response curves were generated and IC50 values calculated by nonlinear regression analysis using Prism software version 5 (GraphPad Software Inc., San Diego, CA, USA).
# Figure S2. Dose response curves for compounds 13, 44, 53, 54, and 55. B103 cells stably expressing LPA2 receptor were incubated with different concentrations of the compound under study and […]
# Curves were generated with PRISM software version 5 (GraphPad Software Inc, San Diego, CA, USA) using nonlinear regression analysis. Each data point corresponds to the mean±SEM of two to four independent experiments carried out in triplicate or quadruplicate.
# LPA2 mutant R107A = molecular target: T2, LPA2 mutant R107A (Homo sapiens, UniProt Q9HBW0, R104A); experiment: Ca2+ mobilization in McA-RH7777 cells transfected with LPA2 point mutant R107A; assay type: cell-based; conditions: 54 at 10 μM, 10 μM LPA
# T2 construct: host or cells: McA-RH7777 (CRL-1601, ATCC), transient, pcDNA3.1
# LPA2 mutant Q108A = molecular target: T3, LPA2 mutant Q108A (Homo sapiens, UniProt Q9HBW0, Q105A); experiment: Ca2+ mobilization in McA-RH7777 cells transfected with LPA2 point mutant Q108A; assay type: cell-based; conditions: 54 at 10 μM, 10 μM LPA
# T3 construct: host or cells: McA-RH7777 (CRL-1601, ATCC), transient, pcDNA3.1
# [1] = Parallel artificial membrane permeability assay (PAMPA); assay type: in vitro ADME; conditions: pH 7.4, PAMPA, PBS pH 7.4, 5 h, rt, read-out: P (cm/s), permeability value
# Protocol: These studies were carried out as previously described with minor modifications.[41],[42] The assessment of the membrane permeability of synthesized compounds and propranolol and metoprolol as reference compounds was performed in a commercially available 96-well Corning Gentest precoated PAMPA plate system (Cultek S.L.U., Spain). Prior to use, the precoated PAMPA plate system was warmed to rt for 30 min and 300 μL of 200 μM solution of tested compound in 2% DMSO in PBS (pH 7.4) were added into wells in the receiver (donor) plate. Then, 200 μL of PBS were added into wells in the filter (acceptor) plate. The filter plate was placed on the receiver plate by slowly lowering the precoated PAMPA plate until it sits on the receiver plate. The assembly was incubated at rt for 5 h, and then buffer samples were collected carefully from each plate. The final concentrations of compound in both donor and acceptor wells were analyzed by HPLC-MS and quantification was estimated by using the peak area integration normalized with an internal standard. Permeability value of the compounds was calculated using the following formula: P (cm/s) = {−ln[1 – CA(t)/Ceq]}/[A(1/VD + 1/VA)t], where A = filter area (0.3 cm^2), VD = donor well volume (0.3 mL), VA = acceptor well volume (0.2 mL), t = incubation time (s), CA(t) = compound concentration (μM) in the acceptor well at time t, CD(t) = compound concentration (μM) in donor well at time t, and Ceq = [CD(t)VD + CA(t)VA]/(VD + VA). Assays were performed in duplicate, and the compound was tested in two different plates on different days.
# [2] = Metabolic stability in human liver microsomes; assay type: in vitro ADME; conditions: male, liver microsomes (pooled), 1 mg/mL protein, NADPH, 37 °C, read-out: stability (t1/2, min) HLMs
# Protocol: Reactions were initiated by the addition of a suspension of mouse liver microsomes (MLMs) (male CD-1 mice pooled, Sigma-Aldrich) or human liver microsomes (HLMs) (male human pooled, Sigma-Aldrich), respectively, at a final protein concentration of 1 mg/mL. […] Aliquots of 100 μL were quenched at time zero and at seven points ranging to 2 h (MLM) or 4 h (HLM) by pouring into 100 μL of ice-cold acetonitrile. […] The relative disappearance of the compound under study over the course of the incubation was monitored by HPLC-MS using SIM mode. Concentrations were quantified by measuring the area under the peak ([M + H]^+) normalized with an internal standard and converted to the percentage of compound remaining, using the time zero peak area value as 100%. The natural logarithm of the remaining percentage versus time data for each compound was fit to a linear regression, and the slope was used to calculate the degradation half-life (t1/2).
# [3] = tested on: spinal cord injury in LPA2 null mice; experiment: Spinal cord contusion injury model in LPA2 null mice (Basso Mouse Scale); assay type: in vivo; conditions: 25 mg/kg i.p. daily for 10 days
# Protocol: Effect of i.p. injection of 54 (25 mg/kg) or vehicle on locomotor recovery in (A) C57bl/6 mice and (B) LPA2 deficient mice quantified using the 0 (absence of movement) to 9 (completely normal locomotor behavior) Basso Mouse Scale (BMS). Data are expressed as mean ± s.e.m. and correspond to seven animals per group in A and five animals per group in B. * p < 0.05 compared with vehicle-treated group (two-way repeated measures ANOVA with Bonferroni’s post hoc test for multiple comparisons).
# All Surgical Procedures Were Approved by the Universitat Autònoma De Barcelona Animal Care Committee (CEEAH 4273) and followed the guidelines of the European Commission on Animal Care (EU Directive 2010/63/EU). Adult female C57Bl/6J mice (10–12 weeks old) and LPA2 null mice were anesthetized by intramuscular injection with a mixture of ketamine and xylazine (90:10 mg/kg). A laminectomy was performed at the 11th thoracic vertebrae and the exposed spinal cord was contused using the Infinite Horizon Impactor device (Precision Scientific Instrumentation) using a force of 60 kdynes. Only mice showing a spinal cord tissue displacement ranging between 450 and 550 μm were selected.
# [4] = In vivo levels of compound in plasma, spinal cord and brain (HPLC-MS); conditions: 25 mg/kg i.p.
# Protocol: At 1, 2, and 4 h after drug administration (n = 3 for each time and sample), mice were sacrificed and their brains, spinal cords, and blood were obtained. The brain and spinal cord were immediately frozen and kept at −80 °C until analysis. Blood was allowed to clot at rt for 30 min and centrifuged at 4 °C for 10 min at 16 000g. Serum was transferred to a clean polypropylene tube and stored at −80 °C until analysis. For analysis, a volume of cold acetonitrile was added to the serum. The sample was incubated in an ice bath for 10 min and centrifuged at 4 °C for 10 min at 16 000g. The resulting organic layer was filtered through a PTFE filter (0.2 μm, 13 mm diameter, Fisher Scientific) and 20 μL of the sample analyzed by LC-MS/MS at the UCM’s Mass Spectrometry CAI. Separation was performed using a Phenomenex Gemini 5 μm C18 110A 150 × 2 mm column (run time 8 min; flow 0.5 mL/min; gradient: 0.5 min 10% Phase B, 2 min 60% Phase B, 4.5–6 min 100% Phase B, 7–8 min 10% Phase B; Phase A: water with formic acid 0.1%; Phase B: acetonitrile). […] The mass spectrometer ion optics were set in the multiple reaction monitoring mode and the transition selected for quantification was 432.90 > 215.10 (CE: −30 V).
# T1 sequence (Q9HBW0 whole entry, species assumed): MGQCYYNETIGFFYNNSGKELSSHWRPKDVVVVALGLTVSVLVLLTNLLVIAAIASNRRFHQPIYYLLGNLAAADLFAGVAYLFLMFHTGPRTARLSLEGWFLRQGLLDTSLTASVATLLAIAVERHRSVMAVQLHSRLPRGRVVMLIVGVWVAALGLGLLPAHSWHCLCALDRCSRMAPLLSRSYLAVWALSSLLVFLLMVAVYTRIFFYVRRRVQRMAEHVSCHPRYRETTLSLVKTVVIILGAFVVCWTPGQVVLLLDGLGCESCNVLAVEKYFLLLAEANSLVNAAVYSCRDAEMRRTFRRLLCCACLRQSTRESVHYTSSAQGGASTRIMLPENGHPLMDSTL
# T2 sequence (Q9HBW0 whole entry R104A): as the sequence (Q9HBW0 whole entry, species assumed) above, with R104A counted along it
# T3 sequence (Q9HBW0 whole entry Q105A): as the sequence (Q9HBW0 whole entry, species assumed) above, with Q105A counted along it
compound,measurement,setting,value
Cc1[nH]nc(-c2ccc(OCc3nnn[nH]3)cc2O)c1Oc1ccc(Cl)cc1Cl [Compound 54],Emax,LPA2,90 ± 2%
same,IC50,"LPA2; antagonism of 10 μM LPA, mean ± s.e.m.",1.9 µM
same,agonist/antagonist activity at LPA2 R107A mutant,LPA2 mutant R107A,no significant agonist nor antagonist activity
same,agonist/antagonist activity at LPA2 Q108A mutant,LPA2 mutant Q108A,no significant agonist nor antagonist activity
same,"Papp at 5 h, 200 μM",[1],6.1 ×10⁻⁶ cm/s
same,half-life at 5 μM,[2],97 ± 15 min
same,locomotor recovery after SCI (BMS),[3],did not induce any significant effect; also recorded: inactive
same,time of maximum levels in spinal cord and brain,[4],one hour postadministration
